According to patent US20250000858A1, “FGFR TYROSINE KINASE INHIBITORS FOR THE TREATMENT OF ADVANCED SOLID TUMORS” (JANSSEN PHARMACEUTICA NV, priority 2021, published 2025):

Tested on: advanced solid tumors with FGFR mutations or fusions
Experiment: Phase 2 RAGNAR study (NCT04083976): tumor response per RECIST v1.1 or RANO by IRC and investigator (ORR, DOR, DCR, CBR, PFS, OS, best overall response)
Format: in vivo, human
Details: for DOR of longest ongoing PR: + = censored, IA3; for Clinical Benefit Rate n(%) (95% CI) / Confirmed Objective Response Rate n(%) (95% CI) / Disease Control Rate n(%) (95% CI) / Median DOR (95% CI) / Median PFS (95% CI) / Median OS (95% CI): BPC; for Clinical Benefit Rate n(%) (95% CI) / Confirmed Objective Response Rate n(%) (95% CI) / Disease Control Rate n(%) (95% CI) / Median DOR (95% CI) / Median PFS (95% CI): IRC
Text: Subjects ≥12 years of age with target FGFR mutations or any FGFR gene fusions were enrolled into the Broad Panel Cohort. […] A subgroup of subjects in the Broad Panel Cohort with a select panel of pre-specified FGFR markers were identified as the Core Panel Cohort (for analysis only). While the Broad Panel Cohort consists of target FGFR mutations and any fusions, the Core Panel Cohort consists of a select subset of FGFR mutations or fusions. Subjects with any other FGFR mutations that are not captured in the Broad Panel Cohort are included in the study as the Exploratory Cohort. A separate Cholangiocarcinoma Expansion Cohort enrolled subjects with target FGFR mutations or any FGFR gene fusion once the Broad Panel Cohort reached the cap of approximately 30 subjects for cholangiocarcinoma. […] Adolescent subjects enrolled in the Broad Panel Cohort (≥12 to <18 years) are considered part of the Broad Panel Cohort and the Pediatric Cohort.
(§1) Each dose was taken approximately at the same time each day, with or without food.
The Treated Population will consist of all subjects who receive at least 1 dose of study drug. The Treated Population is the primary population for efficacy and safety analyses. […] Adequate disease assessment is defined as having enough evidence to indicate that progression has or has not occurred.
Statistical Methods: For the Broad Panel Cohort, the primary endpoint was overall response rate (ORR) based on RECIST v1.1. or RANO as assessed by the IRC and was calculated with a 95% 2-sided exact confidence interval (CI). The primary endpoint was analyzed using data from the Treated Population (defined as all subjects who receive at least 1 dose of study drug) in the Broad Panel Cohort and the Core Panel Cohort. An error-spending function approach was used to split the significance level for the Broad Panel Cohort and the Core Panel Cohort.
as §1

[1] = CUP (Carcinoma of Unknown Primary), N=8
[2] = EDMTL (Endometrial Cancer), N=6
[3] = HNSCC (Squamous Cell Head and Neck Cancers), N=5
[4] = Others (tumor histologies with 1 subject treated), N=14
[5] = PANCR (Pancreatic Cancer), N=13
[6] = SALIV (Salivary Gland Cancer), N=5
[7] = nonsqNSCLC (Non-squamous NSCLC), N=7
[8] = BRST (breast cancer), N=7, efficacy analysis set, investigator assessment

COc1cc(OC)cc(N(CCNC(C)C)c2ccc3ncc(-c4cnn(C)c4)nc3c2)c1 [erdafitinib, N-(3,5-dimethoxy-phenyl)-N′-(1-methylethyl)-N-[3-(1-methyl-1H-pyrazol-4-yl)quinoxalin-6-yl]ethane-1,2-diamine]
DOR of longest ongoing PR (1 patient with endometrial cancer): ≥ 13.7 months
DOR of longest ongoing PR (1 patient with pancreatic cancer): ≥ 13.8 months
clinical benefit rate (CBR: CR+PR+SD>4 months) (69/124, efficacy analysis set): 55.6%
Objective Response Rate (BCC, N=1, efficacy analysis set, investigator assessment): 0 (NE, NE) %
Clinical Benefit Rate n(%) (95% CI) (BRST (Breast Cancer), N=14): 6 (42.9%)
Confirmed Objective Response Rate n(%) (95% CI) (BRST (Breast Cancer), N=14): 5 (35.7%)
Disease Control Rate n(%) (95% CI) (BRST (Breast Cancer), N=14): 9 (64.3%)
Median DOR (95% CI) (BRST (Breast Cancer), N=14): NE (NE, NE)
Median PFS (95% CI) (BRST (Breast Cancer), N=14): 4.17 (1.22, NE) months
Confirmed Objective Response Rate n(%) (95% CI) (CCA (Cholangiocarcinoma), N=31): 16 (51.6%)
Disease Control Rate n(%) (95% CI) (CCA (Cholangiocarcinoma), N=31): 30 (96.8%)
Median PFS (95% CI) (CCA (Cholangiocarcinoma), N=31): 8.25 (6.41, 9.72) months
Clinical Benefit Rate n(%) (95% CI) (CRC (Colorectal Cancer), N=6): 1 (16.7%)
Confirmed Objective Response Rate n(%) (95% CI) (CRC (Colorectal Cancer), N=6): 0 (NE, NE) %
Disease Control Rate n(%) (95% CI) (CRC (Colorectal Cancer), N=6): 2 (33.3%)
Median PFS (95% CI) (CRC (Colorectal Cancer), N=6): 1.15 (0.43, NE) months
Clinical Benefit Rate n(%) (95% CI) (CRVX (Cervical Cancer), N=4): 1 (25.0%)
Confirmed Objective Response Rate n(%) (95% CI) (CRVX (Cervical Cancer), N=4): 0 (NE, NE) %
Disease Control Rate n(%) (95% CI) (CRVX (Cervical Cancer), N=4): 3 (75.0%)
Median PFS (95% CI) (CRVX (Cervical Cancer), N=4): 3.52 (1.38, NE) months
Clinical Benefit Rate n(%) (95% CI) [1]: 5 (62.5%)
Confirmed Objective Response Rate n(%) (95% CI) [1]: 2 (25.0%)
Disease Control Rate n(%) (95% CI) [1]: 7 (87.5%)
Median DOR (95% CI) [1]: NE (2.66, NE)
Median PFS (95% CI) [1]: 4.78 (2.04, NE) months
Clinical Benefit Rate n(%) (95% CI) [2]: 3 (50.0%)
Confirmed Objective Response Rate n(%) (95% CI) [2]: 3 (50.0%)
Disease Control Rate n(%) (95% CI) [2]: 4 (66.7%)
Median PFS (95% CI) [2]: 4.11 (1.31, NE) months
Clinical Benefit Rate n(%) (95% CI) (ESOPH (Esophageal Cancer), N=6): 1 (16.7%)
Confirmed Objective Response Rate n(%) (95% CI) (ESOPH (Esophageal Cancer), N=6): 1 (16.7%)
Disease Control Rate n(%) (95% CI) (ESOPH (Esophageal Cancer), N=6): 2 (33.3%)
Median PFS (95% CI) (ESOPH (Esophageal Cancer), N=6): 1.31 (0.30, NE) months
Clinical Benefit Rate n(%) (95% CI) (GSTRC (Gastric Cancer), N=5): 0 (NE, NE) %
Confirmed Objective Response Rate n(%) (95% CI) (GSTRC (Gastric Cancer), N=5): 0 (NE, NE) %
Disease Control Rate n(%) (95% CI) (GSTRC (Gastric Cancer), N=5): 3 (60.0%)
Median PFS (95% CI) (GSTRC (Gastric Cancer), N=5): 2.30 (1.22, NE) months
Clinical Benefit Rate n(%) (95% CI) (HGG (High-grade Glioma), N=29): 10 (34.5%)
Confirmed Objective Response Rate n(%) (95% CI) (HGG (High-grade Glioma), N=29): 3 (10.3%)
Disease Control Rate n(%) (95% CI) (HGG (High-grade Glioma), N=29): 16 (55.2%)
Median DOR (95% CI) (HGG (High-grade Glioma), N=29): NE (NE, NE)
Median PFS (95% CI) (HGG (High-grade Glioma), N=29): 3.86 (2.96, 5.19) months
Clinical Benefit Rate n(%) (95% CI) [3]: 2 (40.0%)
Confirmed Objective Response Rate n(%) (95% CI) [3]: 2 (40.0%)
Disease Control Rate n(%) (95% CI) [3]: 4 (80.0%)
Median PFS (95% CI) [3]: 4.04 (0.39, NE) months
Clinical Benefit Rate n(%) (95% CI) (LGG (Low-grade Glioma), N=6): 3 (50.0%)
Confirmed Objective Response Rate n(%) (95% CI) (LGG (Low-grade Glioma), N=6): 2 (33.3%)
Disease Control Rate n(%) (95% CI) (LGG (Low-grade Glioma), N=6): 4 (66.7%)
Median DOR (95% CI) (LGG (Low-grade Glioma), N=6): NE (NE, NE)
Median PFS (95% CI) (LGG (Low-grade Glioma), N=6): NE (2.76, NE)
Clinical Benefit Rate n(%) (95% CI) (OVAR (Ovarian Cancer), N=4): 1 (25.0%)
Confirmed Objective Response Rate n(%) (95% CI) (OVAR (Ovarian Cancer), N=4): 1 (25.0%)
Disease Control Rate n(%) (95% CI) (OVAR (Ovarian Cancer), N=4): 2 (50.0%)
Median PFS (95% CI) (OVAR (Ovarian Cancer), N=4): 6.70 (NE, NE) months
Clinical Benefit Rate n(%) (95% CI) (Other, N=31): 18 (58.1%)
Confirmed Objective Response Rate n(%) (95% CI) (Other, N=31): 8 (25.8%)
Median PFS (95% CI) (Other, N=31): 5.52 (2.76, 8.61) months
Clinical Benefit Rate n(%) (95% CI) [4]: 7 (50.0%)
Confirmed Objective Response Rate n(%) (95% CI) [4]: 2 (14.3%)
Disease Control Rate n(%) (95% CI) [4]: 11 (78.6%)
Median DOR (95% CI) [4]: NE (NE, NE)
Median PFS (95% CI) [4]: 4.39 (1.41, NE) months
Clinical Benefit Rate n(%) (95% CI) [5]: 6 (46.2%)
Confirmed Objective Response Rate n(%) (95% CI) [5]: 5 (38.5%)
Disease Control Rate n(%) (95% CI) [5]: 12 (92.3%)
Median PFS (95% CI) [5]: 4.76 (3.02, NE) months
Clinical Benefit Rate n(%) (95% CI) (PCA (Prostate Cancer), N=2): 0 (NE, NE) %
Confirmed Objective Response Rate n(%) (95% CI) (PCA (Prostate Cancer), N=2): 0 (NE, NE) %
Disease Control Rate n(%) (95% CI) (PCA (Prostate Cancer), N=2): 0 (NE, NE) %
Median PFS (95% CI) (PCA (Prostate Cancer), N=2): 1.26 (1.18, NE) months
Clinical Benefit Rate n(%) (95% CI) [6]: 5 (100.0%)
Confirmed Objective Response Rate n(%) (95% CI) [6]: 4 (80.0%)
Disease Control Rate n(%) (95% CI) [6]: 5 (100.0%)
Median PFS (95% CI) [6]: NE (8.34, NE)
Clinical Benefit Rate n(%) (95% CI) (STS (Soft Tissue Sarcoma), N=2): 1 (50.0%)
Confirmed Objective Response Rate n(%) (95% CI) (STS (Soft Tissue Sarcoma), N=2): 0 (NE, NE) %
Disease Control Rate n(%) (95% CI) (STS (Soft Tissue Sarcoma), N=2): 1 (50.0%)
Median PFS (95% CI) (STS (Soft Tissue Sarcoma), N=2): NE (3.94, NE)
Clinical Benefit Rate n(%) (95% CI) (Total, N=178): 82 (46.1%)
Confirmed Objective Response Rate n(%) (95% CI) (Total, N=178): 52 (29.2%)
Disease Control Rate n(%) (95% CI) (Total, N=178): 129 (72.5%)
Median PFS (95% CI) (Total, N=178): 4.21 (4.04, 5.52) months
Clinical Benefit Rate n(%) (95% CI) [7]: 3 (42.9%)
Confirmed Objective Response Rate n(%) (95% CI) [7]: 3 (42.9%)
Disease Control Rate n(%) (95% CI) [7]: 4 (57.1%)
Median PFS (95% CI) [7]: 4.07 (1.38, NE) months
Clinical Benefit Rate n(%) (95% CI) (sqNSCLC (Squamous NSCLC), N=11): 3 (27.3%)
Confirmed Objective Response Rate n(%) (95% CI) (sqNSCLC (Squamous NSCLC), N=11): 3 (27.3%)
Disease Control Rate n(%) (95% CI) (sqNSCLC (Squamous NSCLC), N=11): 10 (90.9%)
Median PFS (95% CI) (sqNSCLC (Squamous NSCLC), N=11): 5.03 (2.37, NE) months
Median OS (95% CI) (BRST (Breast Cancer), N=14): 8.87 (4.86, NE) months
Median OS (95% CI) (CCA (Cholangiocarcinoma), N=31): 14.46 (12.09, NE) months
Median OS (95% CI) (CRC (Colorectal Cancer), N=6): 5.68 (1.22, NE) months
Median OS (95% CI) (CRVX (Cervical Cancer), N=4): 4.40 (3.48, NE) months
Median OS (95% CI) [1]: 11.99 (2.99, NE) months
Median OS (95% CI) [2]: NE (1.74, NE)
Median OS (95% CI) (ESOPH (Esophageal Cancer), N=6): 3.42 (1.28, NE) months
Median OS (95% CI) (GSTRC (Gastric Cancer), N=5): 3.29 (2.89, NE) months
Median OS (95% CI) (HGG (High-grade Glioma), N=29): 6.49 (3.75, 14.39) months
Median OS (95% CI) [3]: NE (0.39, NE)
Median OS (95% CI) (LGG (Low-grade Glioma), N=6): 10.94 (5.72, NE) months
Median OS (95% CI) (OVAR (Ovarian Cancer), N=4): NE (NE, NE)
Median OS (95% CI) (Other, N=31): NE (3.94, NE)
Median OS (95% CI) [4]: NE (3.29, NE)
Median OS (95% CI) [5]: 12.12 (7.26, NE) months
Median OS (95% CI) (PCA (Prostate Cancer), N=2): NE (3.48, NE)
Median OS (95% CI) [6]: NE (NE, NE)
Median OS (95% CI) (STS (Soft Tissue Sarcoma), N=2): NE (3.94, NE)
Median OS (95% CI) (Total, N=178): 10.94 (7.89, 14.26) months
Median OS (95% CI) [7]: NE (2.40, NE)
Median OS (95% CI) (sqNSCLC (Squamous NSCLC), N=11): 6.83 (2.37, NE) months
Median DOR [8]: 6.08 (NE, NE) months
Objective Response Rate [8]: 3 (42.9%) (9.9%, 81.6%)
